Assay results: patent US20180021319A1, “COMPOSITIONS AND METHODS FOR TREATING GASTROINTESTINAL INFECTIONS” (The Regents of the University of California, priority 2015, published 2018)

Tested on: Helicobacter pylori
Test: Dual therapy of AGN 201904 with amoxicillin to treat H. pylori infection
Format: in vivo
Settings: AGN 201904 with amoxicillin alone (dual therapy), compared to standard H. pylori infection therapies

Compound: COc1ccc2c(c1)nc([S+]([O-])Cc1ncc(C)c(OC)c1C)n2S(=O)(=O)c1ccc(OCC(=O)O)cc1 (centres unmarked) [AGN 201904]
- H. pylori eradication rate: higher eradication rate
- H. pylori resistance: no H. pylori resistance
